Drawing on ChEMBL document CHEMBL6083186, “Chromenone: An emerging scaffold in anti-Alzheimer drug discovery” (Bioorg Med Chem Lett, 2024), this text covers IC50 and Ratio IC50 for 25 molecules.

The structures appear in SMILES notation. In brackets after ≈: the same amount, converted by molar mass.

The target in test [1] is T1, Cholinesterase (Equus caballus, UniProt P81908). The experiment in a line: Inhibition of equine BChE using BTCh as substrate incubated for 15 mins by Ellmans method. (Ellman's reagent forms a yellow product with free thiols.)
T1 sequence (P81908 whole entry): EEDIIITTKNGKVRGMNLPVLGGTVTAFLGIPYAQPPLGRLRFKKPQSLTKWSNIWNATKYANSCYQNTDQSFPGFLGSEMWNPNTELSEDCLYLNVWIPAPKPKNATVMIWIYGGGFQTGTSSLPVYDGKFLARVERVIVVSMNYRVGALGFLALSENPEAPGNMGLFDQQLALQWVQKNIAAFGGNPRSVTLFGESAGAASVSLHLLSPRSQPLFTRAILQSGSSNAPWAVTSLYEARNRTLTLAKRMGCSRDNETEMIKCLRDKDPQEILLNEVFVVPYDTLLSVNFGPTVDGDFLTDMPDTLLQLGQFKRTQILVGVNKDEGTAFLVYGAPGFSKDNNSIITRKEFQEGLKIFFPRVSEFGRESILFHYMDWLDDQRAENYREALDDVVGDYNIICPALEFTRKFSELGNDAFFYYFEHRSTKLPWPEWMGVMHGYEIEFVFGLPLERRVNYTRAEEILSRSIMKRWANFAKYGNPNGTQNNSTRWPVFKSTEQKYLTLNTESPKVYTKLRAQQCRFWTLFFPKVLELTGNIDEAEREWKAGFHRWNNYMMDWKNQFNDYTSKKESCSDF
Test [2] addresses T2, Beta-secretase 1 (Homo sapiens, UniProt P56817). The experiment in a line: Inhibition of BACE1 (unknown origin) by FRET assay.
For test [3], the target named is Acetylcholinesterase (Electrophorus electricus, UniProt O42275). The experiment in a line: Inhibition of electric eel AChE.
Acetylcholinesterase (Electrophorus electricus, UniProt O42275), sequence (O42275 whole entry): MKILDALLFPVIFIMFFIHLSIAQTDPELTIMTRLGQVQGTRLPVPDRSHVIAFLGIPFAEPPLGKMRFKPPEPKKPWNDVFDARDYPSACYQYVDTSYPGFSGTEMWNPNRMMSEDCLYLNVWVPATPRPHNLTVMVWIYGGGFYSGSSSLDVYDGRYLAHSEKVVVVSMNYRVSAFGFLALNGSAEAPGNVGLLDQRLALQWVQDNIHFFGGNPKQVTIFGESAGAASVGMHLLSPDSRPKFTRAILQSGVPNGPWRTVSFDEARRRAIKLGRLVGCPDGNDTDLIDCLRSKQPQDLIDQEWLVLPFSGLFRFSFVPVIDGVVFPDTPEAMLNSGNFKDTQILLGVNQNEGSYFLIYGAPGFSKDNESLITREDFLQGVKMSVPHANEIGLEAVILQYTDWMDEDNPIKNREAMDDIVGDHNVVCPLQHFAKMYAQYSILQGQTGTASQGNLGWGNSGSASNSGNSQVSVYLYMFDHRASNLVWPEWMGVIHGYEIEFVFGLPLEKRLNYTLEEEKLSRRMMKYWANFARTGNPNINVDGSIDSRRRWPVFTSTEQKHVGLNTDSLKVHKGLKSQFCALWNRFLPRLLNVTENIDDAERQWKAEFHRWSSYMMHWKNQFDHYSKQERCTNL
Test [4] addresses T3, Cholinesterase (Homo sapiens, UniProt P06276). The experiment in a line: Inhibition of human BuChE using butyrylthiocholine iodide as substrate pre-incubated for 10 mins followed by substrate addition and measured for 15 mins by Ellman's method.
The target in test [5] is T4, Acetylcholinesterase (Homo sapiens, UniProt P22303). The experiment in a line: Inhibition of AChE (unknown origin) by Ellman's method.
T4 sequence (P22303 whole entry): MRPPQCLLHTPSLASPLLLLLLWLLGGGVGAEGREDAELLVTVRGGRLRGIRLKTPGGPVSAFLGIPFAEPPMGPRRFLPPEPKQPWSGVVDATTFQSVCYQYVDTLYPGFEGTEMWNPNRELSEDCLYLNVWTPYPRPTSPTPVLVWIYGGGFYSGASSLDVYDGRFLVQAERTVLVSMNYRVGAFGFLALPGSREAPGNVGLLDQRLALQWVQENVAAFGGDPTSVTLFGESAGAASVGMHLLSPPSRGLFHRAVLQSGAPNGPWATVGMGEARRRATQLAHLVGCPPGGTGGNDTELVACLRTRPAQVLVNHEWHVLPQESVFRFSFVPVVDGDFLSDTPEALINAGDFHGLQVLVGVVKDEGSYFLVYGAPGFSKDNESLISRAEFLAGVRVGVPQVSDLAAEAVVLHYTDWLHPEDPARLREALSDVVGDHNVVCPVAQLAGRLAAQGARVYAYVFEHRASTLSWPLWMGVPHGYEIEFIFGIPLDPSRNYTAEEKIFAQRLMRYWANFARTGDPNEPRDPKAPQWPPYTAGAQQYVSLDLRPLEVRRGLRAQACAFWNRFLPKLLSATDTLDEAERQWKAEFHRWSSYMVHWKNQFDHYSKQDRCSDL
Test [6] deals with T3, Cholinesterase. The experiment in a line: Inhibition of BChE (unknown origin) by Ellman's method.
Test [7] concerns the target T2, Beta-secretase 1. The test is described as follows: Inhibition of BACE1 (unknown origin) using Rh-EVNLDAEFK-Quencher as substrate incubated for 1 hr by FRET assay.
The target of test [8] is T1, Cholinesterase. The experiment in a line: Inhibition of equine BuChE.
Test [9] deals with T4, Acetylcholinesterase. The test is described as follows: Inhibition of human AChE using […] as substrate incubated for 20 mins by DTNB reagent based Ellman's method.
The species named for the next test is Homo sapiens. The test is described as follows: Selectivity index, ratio of IC50 for human BuChE to IC50 for human AChE.
Test [10] concerns the target T4, Acetylcholinesterase. The experiment in a line: Inhibition of AChE (unknown origin).
The nature of test [11]: Antioxidant activity assessed as DPPH radical scavenging activity. The test is classed as functional.
Test [12] has as its target T2, Beta-secretase 1. The test is described as follows: Inhibition of BACE1 (unknown origin).
The target in test [13] is T1, Cholinesterase. The test is described as follows: Inhibition of equine serum BChE using butyrylthiocholine iodide as substrate by DTNB reagent based Ellman's method.
For test [14], the target named is T5, Amine oxidase [flavin-containing] B (Homo sapiens, UniProt P27338).
T5 sequence (P27338 whole entry): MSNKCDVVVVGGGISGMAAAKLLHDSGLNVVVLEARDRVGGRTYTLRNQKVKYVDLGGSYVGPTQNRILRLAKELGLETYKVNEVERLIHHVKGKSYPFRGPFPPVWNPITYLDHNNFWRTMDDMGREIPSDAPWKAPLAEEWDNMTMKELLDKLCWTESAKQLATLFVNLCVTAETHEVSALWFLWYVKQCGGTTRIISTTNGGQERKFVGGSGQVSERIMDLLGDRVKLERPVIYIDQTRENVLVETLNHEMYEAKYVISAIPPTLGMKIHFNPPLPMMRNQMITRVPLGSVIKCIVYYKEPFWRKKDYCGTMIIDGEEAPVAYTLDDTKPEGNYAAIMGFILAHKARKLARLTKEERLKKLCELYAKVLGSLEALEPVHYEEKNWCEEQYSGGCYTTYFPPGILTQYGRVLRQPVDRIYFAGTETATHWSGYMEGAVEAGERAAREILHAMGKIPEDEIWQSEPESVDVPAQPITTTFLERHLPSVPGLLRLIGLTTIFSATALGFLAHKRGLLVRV
The test is described as follows: Inhibition of MAO-B (unknown origin).

Test [15] deals with T3, Cholinesterase. The experiment in a line: Inhibition of BuChE (unknown origin).
Test [16] has as its target T4, Acetylcholinesterase. The test is described as follows: Inhibition of human recombinant AChE using acetylthiocholine iodide as substrate preincubated for 15 mins followed by substrate addition measured for 10 mins DTNB reagent based Ellman's method.

T3 sequence (P06276 whole entry): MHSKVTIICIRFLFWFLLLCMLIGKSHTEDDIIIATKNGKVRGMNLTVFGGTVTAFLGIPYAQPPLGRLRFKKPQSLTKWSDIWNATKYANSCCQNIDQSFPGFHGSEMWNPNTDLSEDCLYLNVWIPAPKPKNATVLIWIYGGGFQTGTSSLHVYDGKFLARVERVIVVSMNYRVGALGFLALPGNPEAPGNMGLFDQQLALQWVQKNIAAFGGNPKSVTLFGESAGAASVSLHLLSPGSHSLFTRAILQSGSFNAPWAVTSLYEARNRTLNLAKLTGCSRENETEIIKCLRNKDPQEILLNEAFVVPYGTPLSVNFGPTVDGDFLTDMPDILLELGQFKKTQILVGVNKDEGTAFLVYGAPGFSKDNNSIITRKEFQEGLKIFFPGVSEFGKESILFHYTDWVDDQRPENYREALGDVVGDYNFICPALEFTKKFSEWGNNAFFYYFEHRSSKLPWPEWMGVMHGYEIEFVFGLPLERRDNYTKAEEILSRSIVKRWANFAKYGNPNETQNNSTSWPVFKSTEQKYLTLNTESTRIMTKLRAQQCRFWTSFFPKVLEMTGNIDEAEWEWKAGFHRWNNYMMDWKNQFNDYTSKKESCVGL
T2 sequence (P56817 whole entry): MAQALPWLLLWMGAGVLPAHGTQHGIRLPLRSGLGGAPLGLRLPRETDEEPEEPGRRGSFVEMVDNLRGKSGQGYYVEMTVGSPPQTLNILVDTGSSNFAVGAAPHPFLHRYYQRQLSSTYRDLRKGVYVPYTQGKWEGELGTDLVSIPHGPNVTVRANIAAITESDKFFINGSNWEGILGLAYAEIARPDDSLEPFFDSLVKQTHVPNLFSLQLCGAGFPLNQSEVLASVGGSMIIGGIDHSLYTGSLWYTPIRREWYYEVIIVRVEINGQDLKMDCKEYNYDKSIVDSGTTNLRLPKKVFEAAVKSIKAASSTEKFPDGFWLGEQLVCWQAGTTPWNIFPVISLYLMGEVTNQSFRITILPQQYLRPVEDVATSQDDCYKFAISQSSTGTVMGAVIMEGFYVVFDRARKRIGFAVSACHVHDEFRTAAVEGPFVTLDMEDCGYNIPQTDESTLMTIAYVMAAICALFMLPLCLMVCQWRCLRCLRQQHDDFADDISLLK

Regarding `COc1cc2cc(-c3ccc(CN(C)Cc4ccccc4)cc3)c(=O)oc2cc1OC`, the IC50 (in general, the concentration at which inhibition is half-maximal) against Cholinesterase [1] is 48.9 µM. `COc1cccc2cc(C(=O)NCc3cnnn3Cc3ccccc3Cl)c(=O)oc12`: the IC50 on Beta-secretase 1 [2] came to 96.1 µM; against Acetylcholinesterase [3] it was 15.4 µM. Consider `Cc1cc(=O)oc2cc(OCc3nnc(Cc4cccc5c4OCO5)o3)ccc12`, for which the IC50 against Cholinesterase [4] stood at 24 µM. In the case of `COc1cc2ccc(=O)oc2cc1O` [SCOPOLETIN], the half-inhibitory concentration (IC50) against Acetylcholinesterase [5] amounted to 154 µM; at Cholinesterase [6], 159 µM; at Beta-secretase 1 [7], 159 µM. On to `O=c1oc2c(O)cccc2cc1-c1ccccc1`, for which, on Cholinesterase [8], half-maximal inhibition (IC50) was put at 13.1 µM. `Cc1cc(=O)oc2cc(OCc3nnc(-c4ccc(O)c(O)c4)o3)ccc12` gave an IC50 against Acetylcholinesterase [9] of 29.6 µM. Besides, in the test listed under Homo sapiens, the Ratio IC50 was found to be 1.55. For the molecule `O=C(O)c1cc2ccc(=O)oc2cc1O`, the IC50 is 145 µM on Acetylcholinesterase [5], 27.2 µM against Cholinesterase [6] and 0.34 µM at Beta-secretase 1 [7]. The molecule `O=C1OC2=C(O)C(O)=CCC2C=C1c1ccc(O)c(O)c1` (stereo not drawn) yielded an IC50 against Acetylcholinesterase [10] of 3.04 µM. For `COc1ccc2ccc(=O)oc2c1` [HERNIARIN], the values for the half-inhibitory concentration (IC50) at Acetylcholinesterase [5], on Cholinesterase [6] and against Beta-secretase 1 [7] were 104 µM, 119 µM and 172 µM, respectively. Regarding `O=c1oc2ccccc2cc1-c1ccc(Br)cc1`, on Acetylcholinesterase [10], the IC50 worked out at 19.2 µM. For `O=C1O[C@H]([C@@H](O)CO)C(O)=C1O` [ASCORBIC ACID], in [11], the IC50 is 10.52 µg/mL (≈ 59.7 µM). For the molecule `COc1cc(OC)c2c(=O)c(OCCCCn3cc(CN4C(=O)C(=O)c5ccccc54)nn3)c(-c3ccc(OC)c(OC)c3)oc2c1`, half-maximal inhibition against Cholinesterase [6] (IC50) was put at 11.2 µM. In the case of `COc1cc(Cn2cc(COc3ccc4ccc(=O)oc4c3C(C)=O)nn2)cc(OC)c1`, the IC50 on Acetylcholinesterase [5] turned out to be 2.57 µM; at Cholinesterase [6], 3.26 µM; on Beta-secretase 1 [12], 10.7 µM. For the molecule `Cc1c(C)c2c(c(C)c1O)CCC(C)(C(=O)O)O2` (stereo not drawn) [TROLOX], the IC50 in test [11] was 12.54 µg/mL (≈ 50.1 µM). With `O=C(NCCCN1CCOCC1)c1cc2ccc(OCc3cn(Cc4cccc(Cl)c4Cl)nn3)cc2oc1=O`, the IC50 is 21.1 µM at Beta-secretase 1 [12] and 1710 nM against Cholinesterase [13]. For `O=C1CCOc2ccc(OCCN3CCCCCC3)cc21`, the IC50 was determined as 1110 nM in test [14], 4.88 µM against Acetylcholinesterase [10] and 13.7 µM on Cholinesterase [15]. In the case of `COc1cc2oc(=O)ccc2cc1O` [ISOSCOPOLETIN], the figures for the IC50 at Acetylcholinesterase [5], against Cholinesterase [6] and on Beta-secretase 1 [7] were 174 µM, 110 µM and 146 µM, respectively. Turning to `CC(C)c1cc2cc3ccc(=O)oc3cc2o1`, on Acetylcholinesterase [16], the concentration for half-maximal inhibition (IC50) stood at 86.5 µM.

In the case of `COc1cccc2cc(-c3ccc(NC(=O)c4ccc(F)cc4)cc3)c(=O)oc12`, at Cholinesterase [8], inhibition was half-maximal at 0.55 µM (IC50).

As to `COc1cccc2cc(-c3ccc(NC(=O)c4ccc(CCl)cc4)cc3)c(=O)oc12`, the IC50 at Acetylcholinesterase [10] came out at 0.091 µM. Turning to `Cc1cc(=O)oc2cc(OCc3nnc(-c4cc(O)c(O)c(O)c4)o3)ccc12`, the IC50 against Acetylcholinesterase [9] is 28.7 µM. The Ratio IC50 in the test filed under Homo sapiens came out at 1.65. In the case of `O=c1ccc2cc(O)c(O)cc2o1` [ESCULETIN], the figures for the IC50 against Acetylcholinesterase [5] and against Cholinesterase [6] were 6.13 µM and 8.66 µM, respectively.

Take `O=c1c(O)c(-c2ccc(O)c(O)c2)oc2cc(O)cc(O)c12` [QUERCETIN]: the IC50 in test [11] turned out to be 3.18 µg/mL (≈ 10.5 µM).

For the molecule `O=c1ccc2ccc(O)cc2o1` [UMBELLIFERONE], the values for the IC50 at Cholinesterase [6] and on Beta-secretase 1 [7] were 105 µM and 143 µM, respectively. With `Cc1cc(=O)oc2cc(OCC(=O)N/N=C\c3ccc(C(=O)O)cc3)ccc12`, the IC50 against Acetylcholinesterase [5] came to 0.802 µM.
